A word on the IC50: it is the concentration needed to halve the response being measured.

Experimental findings from patent US20240190871A1, “KRASG12D INHIBITOR, PREPARATION METHOD THEREFOR AND APPLICATION THEREOF” (YA THERAPEUTICS INC, priority 2021, published 2024) are described below.

The target of one assay is KRAS-G2D/SOS1 (Homo sapiens, UniProt P01116, G12D). In words: KRAS-G2D/SOS1 binding experiment (HTRF). Conditions: His-tagged G12D protein and Tag1-SOS protein, room temperature. The procedure: • A) Dilute Tagged-His Tag G12D protein and Tag1-SOS protein with diluent at 1:100, and use detection buffer for anti-Tag1-Tb3+ antibody and anti-Tag2-XL665 at 1:100 or 1:25, respectively Dilute. • B) Dilute the compound to be tested with diluent starting from […] concentration, 4 times gradient, a total of 6 concentration gradients, and dilute to 10× stock solution. • C) In a 96-well plate, add 4 uL Tagged-His Tag G12D protein, 4 uL Tag1-SOS protein, 2 ul dilution solution (positive control) or test compound (different concentrations of 10× stock solution) to each well in sequence, a total of 10 ul, and incubate at room temperature for […], add pre-mixed 5 uL anti-Tag1-Tb3+ and 5 uL anti-Tag2-xL665, seal the plate, incubate at room temperature for 2 hours, and read the HTRF signal with a TECAN INFINITEF NANO+ microplate reader.
The ratio of […] and donor excitation signals for each single well was calculated using the formula ratio=665 nm signal value/620 nm signal value×[…]. Data were processed using Graphpadprism5 software. IC50 values were calculated by sigmoidal dose-response curve fitting.
(Time-resolved FRET reads energy transfer from a long-lived donor to a nearby acceptor.)

Assay [1] has as its system ATCC CRL-1739 (KRASG^12D mutant) cells. In words: Tumor cell proliferation inhibition experiment (Cell Titer-Glo, 72 hours). Format: cell-based. The following applies: 72 hours incubation, 10% fetal bovine serum, ATP content. The procedure:
The ATCC CRL-1739 (KRASG^12D mutant) cells were digested, centrifuged and resuspended, and the cell density was measured with a Scepter automatic cell counter. The cells were diluted to a solution containing 44,000 cells per milliliter, and the density-adjusted cell solution was 90 per well. Microliters were added to a 96-well culture plate. The 96-well plate was placed in a 37° C., 5% CO2 incubator. After the cells were cultured for 24 hours, different concentrations of the compounds to be tested were added. The cells were incubated with the compounds for 72 hours in the presence of 10% fetal bovine serum. Glo Luminescent Cell Viability Assay Kit (see manufacturer's instructions for details) was used to measure ATP content to assess cell growth inhibition. Briefly, 30 μl of Cell Titer-Glo reagent was added to each well, and the plate was shaken for 10 minutes to induce cell lysis. FluoroskanAscentFL (Thermo) assay records the […], and the maximum signal value is obtained from cells treated with DMSO for 72 hours. The minimum signal value was obtained from the medium alone (the number of cells was zero), and the % inhibition rate=(the maximum signal value compound signal value)/(the maximum signal value−the minimum signal value×100%, and the data were processed using Graphpadprism 5 software. By sigmoid Dose-response curve fitting to calculate IC50 value. “A” means IC50≤50 nM; “B” means 50<IC50≤500 nM; “C” means 500<IC50≤2000 nM; “D” means 2000<IC50
A general note: Cellular ATP, detected with luciferase, serves as a proxy for viable cell number.

Where only a bound is given, the exact number is not on record here.

Chain of KRAS-G2D/SOS1 (P01116 1-188 isoform P01116-2 G12D): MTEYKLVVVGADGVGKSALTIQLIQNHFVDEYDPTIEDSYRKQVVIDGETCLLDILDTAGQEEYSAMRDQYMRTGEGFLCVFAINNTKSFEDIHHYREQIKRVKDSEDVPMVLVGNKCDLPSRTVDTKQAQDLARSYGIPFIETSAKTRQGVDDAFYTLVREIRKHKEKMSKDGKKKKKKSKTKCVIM

On to `C[C@@H]1CNCCN1c1nc(OC[C@@H]2CCCN2C)nc2nc(-c3c(O)cccc3F)c(F)cc12` [Compound 7, 3-fluoro-2-(6-fluoro-4-((R)-2-methylpiperazin-1-yl)-2-(((S)-1-methylpyrrolidin-2-yl)methoxy)pyrido [2,3-d]pyrimidin-7-yl)phenol], for which the half-inhibitory concentration (IC50) on KRAS-G2D/SOS1 was greater than 500 nM; in assay [1], greater than 2000 nM.

`C[C@@H]1CNCCN1c1nc(OC[C@@H]2CCCN2C)nc2nc(-c3cccc4cccc(F)c34)c(F)cc12` [Compound 33, 6-fluoro-7-(8-fluoronaphthalen-1-y1)-4-((R)-2-methylpiperazin-1-y1)-2-(((S)-1-methylpyrrolidin-2-yl)methoxy)pyrido [2,3-d]pyrimidine]: the 50% inhibitory concentration (IC50) (at KRAS-G2D/SOS1; in assay [1]) was 50 to 500 nM throughout.

In the case of `C[C@@H]1CNCCN1c1nc(OC[C@@H]2CCCN2C)nc2nc(-c3cccc4cccc(Cl)c34)c(F)cc12` [Compound 34, 7-(8-chloronaphthalen-1-yl)-6-fluoro-4-((R)-2-methylpiperazin-1-yl)-2-(((S)-1-methylpyrrolidin-2-yl)methoxy)pyrido [2,3-d]pyrimidine], the concentration for half-maximal inhibition (IC50) on KRAS-G2D/SOS1 was in the range of 50 to 500 nM; in assay [1], 500 to 2000 nM.

Consider `C[C@@H]1CNCCN1c1nc(OC[C@@H]2CCCN2C)nc2nc(-c3cc(O)cc4ccccc34)c(F)cc12` [Compound 36, 4-(6-fluoro-4-((R)-2-methylpiperazin-1-yl)-2-(((S)-1-methylpyrrolidin-2-yl)methoxy)pyrido [2,3-d]pyrimidin-7-yl)naphthalen-2-ol], for which the values for the concentration for half-maximal inhibition (IC50) (on KRAS-G2D/SOS1; in assay [1]) were no more than 50 nM and greater than 2000 nM, respectively.

As to `C[C@@H]1CNCCN1c1nc(OC[C@@H]2CCCN2C)nc2nc(-c3cc(O)cc4cccc(Cl)c34)c(F)cc12` [Compound 45, 5-chloro-4-(6-fluoro-4-((R)-2-methylpiperazin-1-yl)-2-(((S)-1-methylpyrrolidin-2-yl)methoxy)pyrido [2,3-d]pyrimidin-7-yl)naphthalen-2-ol], the half-maximal inhibitory concentration (IC50) is no more than 50 nM at KRAS-G2D/SOS1 and 50 to 500 nM in assay [1].

As for `C[C@@H]1CNCCN1c1nc(OC[C@@H]2CCCN2C)nc2nc(-c3cc(O)cc4cccc(F)c34)c(F)cc12` [Compound 46, 5-fluoro-4-(6-fluoro-4-((R)-2-methylpiperazin-1-yl)-2-(((S)-1-methylpyrrolidin-2-yl)methoxy)pyrido [2,3-d]pyrimidin-7-yl)naphthalen-2-ol], the IC50 (at KRAS-G2D/SOS1; in assay [1]) was no more than 50 nM each time.

Regarding `Oc1cc(-c2nc3nc(OC[C@@]45CCCN4C[C@H](F)C5)nc(N4C5CNCC4C5)c3cc2F)c2c(F)cccc2c1` [Compound 54, 4-(4-(3,6-diazabicyclo [3.1.1]heptan-6-y1)-6-fluoro-2-(((2R,7aS)-2-fluorohexahydro-1H-pyrrolizin-7a-yl)methoxy)pyrido[2,3-d]pyrimidin-7-y1)-5-fluoronaphthalen-2-ol], the IC50 (on KRAS-G2D/SOS1; in assay [1]) was no more than 50 nM in each case.

With `Oc1cc(-c2nc3nc(OC[C@@]45CCCN4C[C@H](F)C5)cc(N4C[C@H]5CC[C@@H](C4)N5)c3cc2F)c2c(F)cccc2c1` [Compound 57, 4-(5-((1R,5S)-3,8-diazabicyclo[3.2.1]octan-3-yl)-3-fluoro-7-(((2R,7aS)-2-fluorohexahydro-1H-pyrrolizin-7a-yl)methoxy)-1,8-naphthyridin-2-yl)-5-fluoronaphthalen-2-ol], the IC50 (at KRAS-G2D/SOS1; in assay [1]) was no more than 50 nM throughout.

As for `C#Cc1c(F)ccc2cc(O)cc(-c3nc4nc(OC[C@@]56CCCN5C[C@H](F)C6)nc(N5C[C@H]6CC[C@@H](C5)N6)c4cc3F)c12` [Compound 58, 4-(4-((1R,5S)-3,8-diazabicyclo[3.2.1]octan-3-yl)-6-fluoro-2-(((2R,7aS)-2-fluorotetrahydro-1H-pyrrolizin-7a(5H)-yl)methoxy)pyrido[2,3-d]pyrimidin-7-yl)-5-ethynyl-6-fluoronaphthalen-2-ol], the IC50 (at KRAS-G2D/SOS1; in assay [1]) was no more than 50 nM in each case.
